What was measured:
Type in all cases: cell-based
BaF3-D835N = target: T1, BaF3-D835N (Homo sapiens, UniProt P36888, D835N, cells depend on it); assay: MTS cellular proliferation assay; conditions: 72 hour incubation, read-out: Growth inhibitory activity (in vivo EC50 nM)
T1 sequence (P36888 1-993 D835N): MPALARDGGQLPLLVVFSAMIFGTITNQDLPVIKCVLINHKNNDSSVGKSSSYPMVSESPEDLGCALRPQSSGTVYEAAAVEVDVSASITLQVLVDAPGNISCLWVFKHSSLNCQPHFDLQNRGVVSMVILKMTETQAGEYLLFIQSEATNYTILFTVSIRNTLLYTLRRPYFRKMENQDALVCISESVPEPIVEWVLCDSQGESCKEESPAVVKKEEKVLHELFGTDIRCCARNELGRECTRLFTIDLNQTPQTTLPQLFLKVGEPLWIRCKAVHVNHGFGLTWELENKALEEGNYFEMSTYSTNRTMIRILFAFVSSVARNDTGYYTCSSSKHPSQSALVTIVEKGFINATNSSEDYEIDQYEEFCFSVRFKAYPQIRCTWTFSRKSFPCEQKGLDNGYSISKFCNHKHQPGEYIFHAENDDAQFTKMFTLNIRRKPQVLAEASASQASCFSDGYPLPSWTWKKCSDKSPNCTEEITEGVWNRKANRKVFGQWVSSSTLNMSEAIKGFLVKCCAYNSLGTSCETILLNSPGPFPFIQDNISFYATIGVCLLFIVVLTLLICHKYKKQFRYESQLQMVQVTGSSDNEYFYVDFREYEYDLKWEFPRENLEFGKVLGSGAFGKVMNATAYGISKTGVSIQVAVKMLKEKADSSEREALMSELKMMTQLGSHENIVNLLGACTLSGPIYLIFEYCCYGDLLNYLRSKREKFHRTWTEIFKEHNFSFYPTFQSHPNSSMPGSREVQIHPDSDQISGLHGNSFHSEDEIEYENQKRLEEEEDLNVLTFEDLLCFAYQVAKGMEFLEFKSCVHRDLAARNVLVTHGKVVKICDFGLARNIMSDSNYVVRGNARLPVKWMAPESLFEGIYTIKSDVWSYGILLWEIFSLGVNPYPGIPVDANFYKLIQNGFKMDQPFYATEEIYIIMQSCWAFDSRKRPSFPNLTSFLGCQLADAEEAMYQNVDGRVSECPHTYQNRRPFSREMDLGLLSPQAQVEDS
Excerpt: (§1) The viability of Flt3 expressing cells can be evaluated using a tetrazolium salt reduction cell-based assay. […] BaF3, both wild type and mutant, as well as transfected strains, MV4-11 and MOLM14 are well-characterized Flt3-dependent humanized or human cell lines which express active Flt3 receptors (see, Yee et al. Blood (2002)100 (8):2941-2949; Levis et al. (2002) 99(11): 3885-3891). These cell lines were used to determine the ability of the compounds provided herein to inhibit Flt3 in intact cells. In each case, and by methods known to those practiced in the art of cell culture, proliferation was measured after 72 hour incubation with the compounds provided herein using a standard MTS protocol (Promega Cat #5430 “Cell Titer 96 Aqueous Non-radioactive Cell Proliferation Assay”).
(§2) In general, cells were plated at 10,000-20,000 cells per well in DMEM medium with 0.5% serum. The compound plate was set up by aliquoting into column 1 of a 96 well 300 ul polypropylene plate, the negative control (DMSO), aliquoting into column 12 the positive control and titrating the test compound in serial dilutions into columns 2-1 l. An aliquot from each well of the compound plate was transferred to the plated cells and then incubated @ […] in 5% CO2. [00538] MTS tetrazolium compound (Owen's reagent) was thawed in a H2O bath. 20 μl of MTS tetrazolium was added to each well of optical plate and the cells were incubated @ 37° C. in 5% CO2 for 2 hours. The absorbance measured at 490 nm using a microplate reader.

MV-4-11 = assay: MTS cellular proliferation assay; conditions: Homo sapiens, MV4-11, 72 hour incubation, read-out: Growth inhibitory activity (in vivo EC50 nM)
Excerpt: as §1, §2

C7 macrophages = assay: sulforhodamine B (SRB) cytotoxicity assay; conditions: Macrophage, 144 h; 5 μM highest concentration, diluted 1:4; 6 day assay; read-out: IC50 Measured Against C7 Cell Line (6 day assay)
Experimental: (§3) The cytotoxic activity of compounds listed in Table 5 was determined with a sulforhodamine B (SRB) assay on panel of cell lines, including MdaMb231 (breast cancer), MV4-11 (leukemia), PC-3 (prostate cancer), U266B1 (multiple myeloma), C7 macrophages, and Raw264.7 (murine macrophage-like cells).
(§4) Cells growing in relevant media were seeded in a 96 well plate and left to adhere overnight. Cells were plated at appropriate cell densities: • MV4-11: 20.000 cells/well • Mda-Mb231: 6000 cells/well • C7: 10.000 cells/well • Raw264.7: 2000 cells/well • PC-3: 6000 cells/well • U266B1: 40.000 cells/well.
(§5) Cells were incubated before the compounds were added the next day to a top concentration of 100 μM and serially diluted 1 in 5 across the plate. After a 3 day incubation period (6 days for C7 and Raw264.7) cells were fixed with trichloroacetic acid (TCA) to end concentration of 10% for adherent cells and 16% end concentration for suspension cells for 1 hr at 4° C. before washing. Cells were stained with 0.4% sulforhodamine-B dye (SRB) in 1% acetic acid for 30 minutes and washed in 1% acetic acid. To solubilize the dye 100 μl 10 mM Tris, pH 10.5 was added and the absorbance was read at 564 nm. IC50 values were generated using the SoftMAX Pro™ software. The data is presented below in Tables 6 through 11.

[1] = test system: U266B1 (multiple myeloma) cell line; assay: sulforhodamine B (SRB) cytotoxicity assay; conditions: 72 h, 100 μM highest concentration, diluted 1:5, 3 day incubation, read-out: IC50 Measured Against U266B1 Cell Line
Experimental: as §3, §4, §5

[2] = test system: Raw264.7 (murine macrophage-like cells); assay: sulforhodamine B (SRB) cytotoxicity assay; conditions: Mus musculus, RAW264.7, 144 h; 25 μM highest concentration, diluted 1:5; 6 days; read-out: IC50 Measured Against Raw264.7 Cell Line

Structure (SMILES) | EC50 (BaF3-D835N) | EC50 (MV-4-11) | IC50 (C7 macrophages) | IC50 [1] | IC50 [2]
CCN(CC)CCNc1ccc2ncn3c4ccc(O)cc4c(=O)c1c23 [Symadex, 5-(2-(diethylamino)ethylamino)-8-hydroxy-6H-imidazo[4,5,1-de]acridin-6-one, reference compound] | 14.3 nM | 13.1 nM | 15 nM | – | –
CN(C)CCNc1ccc2ncn3c4ccc5[nH]ncc5c4c(=O)c1c23 [(XII)] | – | – | – | 6110 nM | –
CN1CCN(CCCNc2ccc3ncn4c5ccc6[nH]ncc6c5c(=O)c2c34)CC1 [(XVII)] | – | – | 360 nM | – | 2.6 nM
CN(C)CCCNc1ccc2ncn3c4ccc5[nH]ncc5c4c(=O)c1c23 [Compound (IV)] | 12 nM | 12 nM | – | 6940 nM | –
CC(CCN1CCOCC1)Nc1ccc2ncn3c4ccc5[nH]ncc5c4c(=O)c1c23 (stereo not shown) [(XVI)] | – | – | – | 14500 nM | 25.7 nM
CN(C)CCCCCNc1ccc2ncn3c4ccc5[nH]ncc5c4c(=O)c1c23 [(III)] | 316 nM | 184 nM | – | – | –
O=c1c2c(NCCCN3CCOCC3)ccc3ncn(c4ccc5[nH]ncc5c14)c32 [(X)] | – | – | – | 7060 nM | 2.7 nM
CCN(CC)CCCNc1ccc2ncn3c4ccc5[nH]ncc5c4c(=O)c1c23 [Compound (XV)] | – | – | 13 nM | – | –

From US20100292231A1, “Indazole Compounds for Treating Inflammatory Disorders, Demyelinating Disorders and Cancers” (priority 2007, published 2010)
